≈ marks a conversion by molar mass, not a printed value.

Results on 105 compounds are retold here after PubChem BioAssay AID1996.

For this data set the following is noted: buffer; pH 7.4; 200.0 µM.
`CN(C)C(=O)N1CCN(c2nc(-c3ccccc3)cs2)CC1` had a solubility (kinetic) of 40.3 µg/mL (≈ 127 µM). For the compound `CC(=O)c1c(C)[nH]c(C(=O)COC(=O)Cc2ccccc2F)c1C`, the solubility (kinetic) is more than 49.7 µg/mL. As for `Cl.Nc1ccn([C@H]2C[C@H](O)[C@@H](CO)O2)c(=O)n1`, the kinetic solubility was more than 39.6 µg/mL. Turning to `COc1ccc(NC(=O)CCCC(=O)NCCc2ccc(OC)c(OC)c2)cc1`, the kinetic solubility is 46 µg/mL (≈ 115 µM). `CCOC(=O)Nc1ccc2nc3n(c(=O)c2c1)CCCCC3`: the kinetic solubility came to 9.1 µg/mL (≈ 30.2 µM). Regarding `CCSc1nc(-c2cccs2)nc2ccccc12`, the solubility (kinetic) was determined as 0.3 µg/mL (≈ 1.1 µM). `Cc1ccc(S(=O)(=O)NCc2c(-c3ccccc3)noc2C)cc1`: the kinetic solubility turned out to be 40.9 µg/mL (≈ 119 µM). For `O=C(CCC(=O)c1ccc(-c2ccccc2)cc1)Nc1cccnc1`, the solubility (kinetic) worked out at 0.7 µg/mL (≈ 2.12 µM). Compound `Cc1ccc2c(c1)sc(=NC(=O)c1cccs1)n2C` displayed a solubility (kinetic) of less than 0.3 µg/mL. The same measure for `COc1ccc(C2(CNS(=O)(=O)c3ccccc3)CCOCC2)cc1`: 46.6 µg/mL (≈ 129 µM). Turning to `O=C(O)c1cccc2c1C(=O)N(C1CCCC1)C2`, the solubility (kinetic) stood at 34 µg/mL (≈ 139 µM).

Regarding `CN(C)C(=O)CSc1nc2cc(S(=O)(=O)N3CCOCC3)ccc2o1`, the kinetic solubility is more than 57.8 µg/mL. Take `CSc1nc2nc(-c3cccs3)cc(C(F)(F)F)c2c(=O)[nH]1`: the kinetic solubility was 2.5 µg/mL (≈ 7.28 µM). For `O=C1NC(c2ccc(Br)cc2)Oc2ccccc21` (stereo not given), the solubility (kinetic) came to 2.1 µg/mL (≈ 6.9 µM).

Take `Cc1ccccc1OCCCCn1c(CO)nc2ccccc21`: the solubility (kinetic) came out at 29.2 µg/mL (≈ 94.1 µM).

For `COc1ccccc1CN(C)C(=O)COC(=O)c1c(C)noc1C`, the solubility (kinetic) is more than 49.9 µg/mL. Compound `CN(CC(=O)Nc1ccc(F)c(F)c1F)C(=O)C1CCCCC1` returned a solubility (kinetic) of more than 49.3 µg/mL. In turn, `CC(=O)c1cccc(OCCCOc2cccc3cccnc23)c1` yielded a kinetic solubility of 37.2 µg/mL (≈ 116 µM). The figure for `CCOCCCn1c(=NC(C)=O)c(C#N)cc2c(=O)n3ccccc3nc21` is more than 54.8 µg/mL. In turn, `Cc1ccc(S(=O)(=O)N2CCN(C(=O)c3ccco3)CC2)c(C)c1` came in with a solubility (kinetic) of 49 µg/mL (≈ 141 µM). For the compound `Nc1nc(NCc2ccco2)nc(NC2CCCCC2)c1[N+](=O)[O-]`, the solubility (kinetic) came to 0.3 µg/mL (≈ 0.903 µM).

The compound `CCc1cc(=O)[nH]c(SCC(=O)NCC2CCCO2)n1` (stereo not given) showed a solubility (kinetic) of more than 44.6 µg/mL. Compound `O=C(Nc1ccc(N2CCOCC2)nc1)c1ccccc1Cl` gave a solubility (kinetic) of 42 µg/mL (≈ 132 µM). The same measure for `CCOC(=O)c1c(C)nc(C)c2c(=O)oc3ccccc3c12`: less than 0.6 µg/mL. `O=C(COC(=O)CN1CCSC1=O)Nc1ccc(F)cc1Cl` returned a kinetic solubility of more than 52 µg/mL. In the case of `CCOC(=O)N1CCN(C(=O)/C=C/c2ccc(OC)cc2)CC1`, the kinetic solubility was 36.1 µg/mL (≈ 113 µM). The same measure for `COc1cc(OC)cc(C(=O)Nc2ccc(C(=O)Nc3ccccc3OC)cc2)c1`: 6.4 µg/mL (≈ 15.7 µM).

`Cc1ccc(C(=O)OCC(=O)NCCc2ccc(F)cc2)cc1S(=O)(=O)N1CCOCC1` yielded a kinetic solubility of 57.2 µg/mL (≈ 123 µM).

On to `Cc1ccc(-c2cc(C(=O)N3CCOCC3)c3ccccc3n2)o1`, for which the solubility (kinetic) is more than 48.4 µg/mL. The figure for `CCOC(=O)Cc1csc(NC(=O)CCC(=O)O)n1` is more than 42.9 µg/mL; for `CCCc1c(O)nc(SCC(=O)O)[nH]c1=O` it is more than 36.6 µg/mL.

In turn, `O=C(Nc1ccc(Cl)c(Cl)c1)c1ccco1` yielded a solubility (kinetic) of 8.5 µg/mL (≈ 33.2 µM).

Take `COc1cccc(N=Cc2c(O)c3ccccc3oc2=O)c1`: the solubility (kinetic) was 15.5 µg/mL (≈ 52.5 µM). The figure for `CCc1nnc(NC(=O)CSc2nnc3nc(C)cc(C)n23)s1` is more than 52.4 µg/mL; for `Cl.O=C(NC1CCN(Cc2ccccc2)CC1)c1ccccc1NS(=O)(=O)c1ccc(F)cc1` it is more than 75.6 µg/mL; for `COc1cccc(NC(=S)NCc2ccc(F)cc2)c1` it is 37.9 µg/mL (≈ 131 µM).

`Cc1cc(-c2nc3ccccc3[nH]2)ccc1N` yielded a solubility (kinetic) of more than 33.5 µg/mL. `COc1ccc(C)cc1NC(=O)CN1C(=O)COc2ccc(C)cc21`: the kinetic solubility came out at 2.1 µg/mL (≈ 6.17 µM). On to `COCCNC(=O)Cc1c(C)c2c(cc(C)c3c(C(C)(C)C)coc32)oc1=O`, for which the kinetic solubility amounted to 3.2 µg/mL (≈ 8.3 µM). With `CC(OC(=O)C1CC1)C(=O)Nc1ncc(Cl)cc1Cl` (stereo not given), the solubility (kinetic) is more than 45.5 µg/mL. The figure for `COc1cccc(CC(=O)Nc2ccc(-c3csc(C)n3)cc2)c1` is 2.5 µg/mL (≈ 7.39 µM); for `COc1cc(C(=O)N2c3ccccc3CCC2C)cc(OC)c1OC` (stereo not given) it is 32.8 µg/mL (≈ 96.1 µM); for `O=C(O)Cc1sc(NCc2ccco2)nc1-c1ccccc1` it is 46.8 µg/mL (≈ 149 µM).

For `O=C(Cc1ccccc1F)NC1CCSc2ccccc21` (stereo not given), the solubility (kinetic) is 8.1 µg/mL (≈ 26.9 µM). `CCNC(=S)Nc1ccc(NC(=O)c2ccccc2O)cc1` yielded a solubility (kinetic) of 21.9 µg/mL (≈ 69.4 µM). The same measure for `CC(=O)C1=C(C)OC(N)=C(C#N)C1c1cc([N+](=O)[O-])ccc1Cl` (stereo not given): 41.9 µg/mL (≈ 126 µM); for `O=C(NCCCn1ccnc1)c1c(F)cccc1F`: 38 µg/mL (≈ 143 µM); for `Cc1ccccc1NC(=O)COC(=O)C1C2CC3OC(=O)C1C3C2` (stereo not given): more than 49.4 µg/mL. Turning to `CCOc1ccc(N(C)S(=O)(=O)c2cnc[nH]2)cc1`, the solubility (kinetic) is more than 42.2 µg/mL. Take `CCc1ccccc1N1C(=O)[C@@H]2Cc3ccccc3CN2C1=O`: the solubility (kinetic) turned out to be 43.1 µg/mL (≈ 141 µM). `Cc1cnc(CNC(=O)c2ccc3oc(C(C)C)nc3c2)[nH]1` yielded a solubility (kinetic) of 38.2 µg/mL (≈ 128 µM).

As to `CCC(C(=O)NCc1ccccc1OC)c1ccccc1` (stereo not given), the solubility (kinetic) was determined as 32.6 µg/mL (≈ 115 µM). The compound `COc1ccc(/C=C/C(=O)O/N=C(\N)c2ccccn2)cc1OC` returned a kinetic solubility of 7.8 µg/mL (≈ 23.8 µM). On to `CCN(CC(=O)N1CCCC1)S(=O)(=O)c1ccccc1`, for which the kinetic solubility was more than 44.5 µg/mL. As for `O=C(O)c1cccc2c1/C(=N/O)c1ccccc1-2`, the solubility (kinetic) was more than 35.9 µg/mL. For the compound `Cc1cccc(NC(=O)NCCCCc2ccccc2)c1`, the kinetic solubility turned out to be 0.4 µg/mL (≈ 1.42 µM).

As to `Cl.NCc1ccccc1CS(=O)(=O)N1CCOCC1`, the kinetic solubility was more than 46 µg/mL.

`N#C/C(N)=C(/C#N)N=Cc1cccc(Cl)c1` came in with a kinetic solubility of 4 µg/mL (≈ 17.3 µM).

`COc1ccccc1/C=N/OCc1cc(C(C)=O)ccc1OC` came in with a solubility (kinetic) of 8.4 µg/mL (≈ 26.8 µM). As to `O=C(CCc1ccccc1)N1CCCC1`, the kinetic solubility was found to be 29.9 µg/mL (≈ 147 µM).

`CCc1sc(C(=O)Nc2ccc3nc(C)sc3c2)cc1C`: the solubility (kinetic) worked out at 1.6 µg/mL (≈ 5.06 µM). Consider `Cc1c(NCc2ccncc2)cccc1C(=O)O`, for which the solubility (kinetic) was more than 36.3 µg/mL. Compound `CCOC(=O)CC1C(=O)NCCN1C(=O)c1ccc(C)cc1` (stereo not given) had a solubility (kinetic) of more than 45.7 µg/mL. In turn, `O=Cc1c(F)cccc1N1CCCC1` had a solubility (kinetic) of 15.3 µg/mL (≈ 79.2 µM).

In turn, `CC(C)(C)NC(=S)NCC1CC1` gave a solubility (kinetic) of more than 27.9 µg/mL.

Consider `O=C(OCc1cc2ccccc2[nH]c1=O)c1cccc([N+](=O)[O-])c1`, for which the solubility (kinetic) was found to be 0.8 µg/mL (≈ 2.47 µM). Compound `CSc1sc(C(=O)N2CCCCC2)c(-c2cccs2)c1C#N` showed a solubility (kinetic) of 31.6 µg/mL (≈ 90.7 µM). Take `CN1CCc2c(sc3nc(NCCO)n(-c4cccc(Cl)c4)c(=O)c23)C1`: the kinetic solubility turned out to be 58.3 µg/mL (≈ 149 µM). The figure for `O=C(NCc1csc(-c2cccs2)n1)C1CCCCC1` is 3.9 µg/mL (≈ 12.7 µM); for `Cc1cccc(OC(C)C(=O)N2CCc3ccccc3C2)c1` (stereo not given) it is 36 µg/mL (≈ 122 µM). Consider `O=C(CN1CCCC1)N1CCN(c2ccccc2)CC1`, for which the solubility (kinetic) is more than 41 µg/mL.

Compound `CCCCNc1c([N+](=O)[O-])ncn1C` returned a kinetic solubility of more than 29.7 µg/mL. Regarding `CC(C)c1ccc(OCCCN2CCCC2)cc1`, the kinetic solubility was 28.8 µg/mL (≈ 116 µM). On to `O=c1[nH]c2ccccc2c(O)c1O`, for which the solubility (kinetic) is more than 26.6 µg/mL. In the case of `O=C(NCc1ccccc1Cl)c1ccncc1`, the kinetic solubility was more than 37 µg/mL. The figure for `O=C(O)c1cc(-c2cccc([N+](=O)[O-])c2)nc2ccccc12` is more than 44.1 µg/mL; for `O=C(NCc1ccccn1)C(=O)Nc1nc(-c2ccccc2)cs1` it is 1.6 µg/mL (≈ 4.73 µM); for `N#Cc1cccc(CN2C=NS(=O)(=O)c3ccccc32)c1` it is 42.2 µg/mL (≈ 142 µM). The figure for `O=C(OCc1c(F)cccc1Cl)c1cccnc1Cl` is 5.1 µg/mL (≈ 17 µM); for `COc1cccc(CNCCc2ccc3c(c2)OCO3)c1OC.O=C(O)C(=O)O` it is more than 60.8 µg/mL. The compound `O=S(=O)(Nc1ccc2ccccc2n1)c1ccc2c(c1)CCO2` yielded a solubility (kinetic) of 45.9 µg/mL (≈ 141 µM). Compound `Cc1[nH]c2ccccc2c1-c1csc(NC(=O)CSCCO)n1` yielded a solubility (kinetic) of more than 52.1 µg/mL. As for `Cc1ccnc2nc(C(=O)OCC(=O)Nc3ccc4c(c3)OCCO4)nn12`, the kinetic solubility is more than 55.4 µg/mL. The same measure for `O=C(Cc1ccccc1Cl)NCc1cccnc1`: more than 39.1 µg/mL. For `COc1ccc(S(=O)(=O)Nc2ccncc2)c(C)c1C`, the kinetic solubility is 4.6 µg/mL (≈ 15.7 µM). For `COc1ccc(N2CCOCC2)c(NC(=O)c2cccs2)c1`, the solubility (kinetic) was found to be 47.7 µg/mL (≈ 150 µM).

`O=C(O)CC(CC(=O)Nc1ccc2ccccc2n1)c1ccccc1` (stereo not given) showed a kinetic solubility of more than 50.2 µg/mL. In turn, `CN1C[C@@H]2C[C@@H](c3cccn3-c3ccccn3)N3CCC[C@@]23C1=O` returned a kinetic solubility of more than 48.4 µg/mL. With `C=CCN(c1ccccc1OC)S(=O)(=O)c1cccc(C(=O)OCC(=O)N2CCOCC2)c1`, the kinetic solubility is more than 71.2 µg/mL.

For the compound `CCCCCCN1C2=NCCCN2c2ccccc21.Cl`, the kinetic solubility is more than 44.1 µg/mL. As to `COc1ccc(NC(=O)c2ccc3c(c2)NC(=O)CO3)cc1OC`, the kinetic solubility amounted to 10.2 µg/mL (≈ 31.1 µM). The figure for `NC(=O)c1ccccc1OCC(=O)Nc1ccc2c(c1)CCC2` is 9.5 µg/mL (≈ 30.6 µM).

The compound `CN1CC(=O)N/C1=N\C(=O)Nc1ccc(O)cc1` displayed a solubility (kinetic) of more than 37.2 µg/mL. The figure for `O=C(COC(=O)c1ccccc1Br)NC1CCCCCCC1` is 25.1 µg/mL (≈ 68.2 µM); for `O=C(Cn1cc(C(F)(F)F)ccc1=O)NCc1ccc(F)cc1` it is more than 49.2 µg/mL; for `CCOC(=O)c1csc(-c2ccc3c(c2)CCO3)n1` it is 32.3 µg/mL (≈ 117 µM). The same measure for `O=C(N/N=C/c1cccs1)c1cccnc1`: more than 34.7 µg/mL.

Compound `O=S(=O)(c1ccc(Cl)cc1)N1CCC2(CC1)OCCO2` returned a solubility (kinetic) of more than 47.7 µg/mL. Turning to `COC(=O)c1ccc(OCC(=O)N2CCCc3ccccc32)cc1`, the solubility (kinetic) came out at 45 µg/mL (≈ 138 µM). Regarding `CCCNC(=O)COC(=O)/C=C/c1ccc(C)o1`, the solubility (kinetic) is more than 37.7 µg/mL. Compound `CCc1nc2ccccc2c(C(=O)Nc2cccc(C)c2)c1C` came in with a solubility (kinetic) of 2.2 µg/mL (≈ 7.23 µM). In the case of `COc1ccc(NC(=O)c2ccc(NC(=O)C3CC3)cc2)cc1`, the kinetic solubility was less than 0.3 µg/mL. `N=C1C(c2ccccc2)=C(O)CN1c1cccc2ccccc12` gave a kinetic solubility of more than 45.1 µg/mL. For the compound `Cc1ccccc1NC(=O)NC1CCS(=O)(=O)C1` (stereo not given), the kinetic solubility is more than 40.2 µg/mL. The same measure for `CCOc1ncccc1C(=O)NCc1ccccc1Cl`: 33.1 µg/mL (≈ 114 µM).
